We go through 1 compound from patent US20090285773A1, “Hepatitis C Virus Inhibitors” (Bristol-Myers Squibb Company, priority 2008, published 2009).

Structures are written as SMILES.

For this experiment, the target named is T1, HCV NS3/4A protease complex, J4L6S strain (1b genotype) (Hepatitis C virus genotype 1b, UniProt O92972, C1454S/C1711G).
T1 construct: DNA encoding the recombinant HCV NS3/4A protease complex (amino acids 1027 to 1711) for these strains; His tag (inferred from pET21b vector and Ni-NTA purification); made in house; host or cells: Escherichia coli BL21 (DE3)
T1 sequence (O92972 1027-1711 C1454S/C1711G, one chain of several): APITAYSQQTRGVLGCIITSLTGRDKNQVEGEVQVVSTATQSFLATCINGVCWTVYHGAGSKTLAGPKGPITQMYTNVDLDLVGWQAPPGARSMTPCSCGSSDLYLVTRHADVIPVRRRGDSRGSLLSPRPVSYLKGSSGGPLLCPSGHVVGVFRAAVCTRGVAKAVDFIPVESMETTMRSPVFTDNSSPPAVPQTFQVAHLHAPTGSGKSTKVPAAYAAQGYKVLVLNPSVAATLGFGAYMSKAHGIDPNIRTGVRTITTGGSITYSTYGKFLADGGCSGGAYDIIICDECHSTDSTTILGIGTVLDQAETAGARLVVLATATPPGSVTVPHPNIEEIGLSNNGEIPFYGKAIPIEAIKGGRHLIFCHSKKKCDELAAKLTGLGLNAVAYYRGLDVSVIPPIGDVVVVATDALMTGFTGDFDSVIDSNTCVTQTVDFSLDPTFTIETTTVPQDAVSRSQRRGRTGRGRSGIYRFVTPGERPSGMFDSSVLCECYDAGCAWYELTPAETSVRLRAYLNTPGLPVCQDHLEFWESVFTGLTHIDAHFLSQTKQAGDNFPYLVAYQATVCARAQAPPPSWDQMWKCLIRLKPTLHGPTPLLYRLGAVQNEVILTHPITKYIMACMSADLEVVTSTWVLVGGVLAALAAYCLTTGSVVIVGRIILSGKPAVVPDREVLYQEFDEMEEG
As to the kind of experiment: FRET peptide assay, HCV NS3/4A protease complex, J4L6S strain. The format is biochemical. The text has this:
HCV NS3 protease complexes, derived from the BMS strain, H77 strain or J4L6S strain, were generated, as described below. These purified recombinant proteins were generated for use in a homogeneous assay (see below) to provide an indication of how effective compounds of the present disclosure would be in inhibiting HCV NS3 proteolytic activity.
Serum from an HCV-infected patient was obtained from Dr. T. Wright, San Francisco Hospital. An engineered full-length cDNA (compliment deoxyribonucleic acid) template of the HCV genome (BMS strain) was constructed from DNA fragments obtained by reverse transcription-PCR (RT-PCR) of serum RNA (ribonucleic acid) and using primers selected on the basis of homology between other genotype 1a strains. From the determination of the entire genome sequence, a genotype 1a was assigned to the HCV isolate according to the classification of Simmonds et al. (See P Simmonds, K A Rose, S Graham, S W Chan, F McOmish, B C Dow, E A Follett, P L Yap and H Marsden, J. Clin. Microbiol., 31(6), 1493-1503 (1993)). […]

Usually IC50 stands for the concentration that inhibits the measured activity by half. Turning to `COc1ccc2c(O[C@@H]3C[C@H]4C(=O)N[C@]5(C(=O)NS(=O)(=O)C6CC6)C[C@H]5/C=C\CCCCC[C@H](Nc5ccc(OC)nc5)C(=O)N4C3)nccc2c1` (single isomer, unassigned) [Compound 1], the IC50 was found to be 1.2 nM.
